Measured values taken from US20240053346A1, “FLUORESCENT DYE AND METHOD FOR DETECTING TUMOR CELLS” (NATIONAL UNIVERSITY CORPORATION EHIME UNIVERSITY, priority 2020, published 2024).
Like-named read-outs stand apart in the source and are kept apart here.

Tests used:
[1] = test system: melanoma lesion tissue of the skin; test: Test Example 3: staining with various SC compounds, two-photon microscopy; conditions: for imaging performance for fluorescence observation (rank): cleared melanoma lesion tissue
Experimental: (§1) The staining solution of Test Examples 1 and 2 was prepared by dissolving PK in DMSO at 1 mg/mL. Each of staining solutions of Test Example 3 and Test Example 4 was a DMSO solution containing 1 mM of an SC compound, and was diluted 100 times for use of staining.
(§2) As the skin normal part tissue, the extramammary Paget's disease lesion tissue, and the melanoma lesion tissue used in Test Examples, whole tissue sections of the tissues obtained by excision were used. A dermatologist has confirmed in advance the identification of each tissue. Also, a normal part tissue and a tumor tissue of the rectum were also prepared by whole-sectioning of the tissues obtained by excision, and a specialist has confirmed the identification of each tissue. The collection and use of the tumor tissues were approved by the Clinical Research Ethics Review Board at Ehime University Hospital (No. 1802009) and were conducted according to its study protocol.
(§3) For microscopy, a two-photon microscope AIR MP+(NIKON) was used. In the measurement, a 960 nm laser light source and a 495 nm filter were used for PK, and a 561 nm filter was used for PI. Scanning was performed to a depth of 100 μm of the sample. The three-dimensional reconstructed image is obtained by processing the obtained data with the software included.
(§4) Normal part tissue of the skin and extramammary Paget's disease lesion tissue cleared by LUCID method in the same manner as in Test Example 2 were stained with a staining solution containing PK, PC, Nile Red, or POLARIC. Each stained tissue section was observed according to the method of two-photon microscopy of Test Example 1. The images were produced by coloring a fluorescent wavelength of 492 nm or less in cyan, 500 to 550 nm in green, 560 to 593 nm in yellow, and 593 nm or more in red. Brightness and contrast of the illustrated images were appropriately corrected.
Melanoma lesion tissue of the skin cleared by the same method were similarly stained and observed with a two-photon microscope.

[2] = test system: extramammary Paget's disease lesion tissue; test: as above; conditions: cleared Paget's disease lesion tissue; for imaging performance for fluorescence observation (rank): judged by fluorescence intensity and contrast of staining
Experimental: as §1, §2, §3, §4

[3] = test system: malignant melanoma lesion tissue (melanoma cells); test: Test Example 2: PK staining of cleared three-dimensional tissue, two-photon microscopy; conditions: cleared tissue 100 μm thick, LUCID method, 495 nm
Experimental: as §1, §2, §3
(§5) Derived extramammary Paget's disease lesion tissue having a thickness of 500 μm and malignant melanoma lesion tissue having a thickness of 100 μm were subjected to a clearing treatment without being subjected to fixation and thinly slicing, and then stained with PK and propidium iodide (PI). Clearing treatment was performed by using LUCID method, according to the procedure described in Sawada K, Kawakami R, Shigemoto R, and Nemoto T. Eur. J. Neurosci., 2018, Vol. 47, No. 9, 1033-1042. The cleared tissue was stained with a PK staining as in Test Example 1. PI staining was performed by a method usually performed in tissue staining. As conditions for microscopy, the same conditions as in Test Example 1 were used for detection of PK signals.

[4] = test system: extramammary Paget's disease lesion tissue (Paget cells); test: as above
Experimental: as §1, §2, §3, §5

[5] = test system: normal rectal mucosal epithelium (columnar epithelium); test: Test Example 4: PK and Hoechst staining of rectum, two-photon microscopy; conditions: cleared by LUCID method, co-stained with Hoechst
Experimental: The staining solution of Test Examples 1 and 2 was prepared by dissolving PK in DMSO at 1 mg/mL. […]
as §2, §3
The normal part tissue and the well-differentiated adenocarcinoma lesion tissue of the rectum cleared by LUCID method in the same manner as in Test Example 2 were stained with PK and Hoechst. […]

[6] = test system: extramammary Paget's disease lesion tissue, tumor cells (Paget cells); test: Test Example 1: PK staining of thin sliced section, two-photon microscopy
Experimental: as §1, §2
The extramammary Paget's disease lesion tissue and the normal part tissue were embedded in paraffin and then cut out to prepare tissue sections. The preparation of the sections (thickness: 5 μm) was performed by the procedure usually performed in histopathological examination. For staining with the PK staining solution, deparaffinization was performed by a conventional method, and then staining was performed by immersion in the PK staining solution at room temperature for several days to one week. In practice, the tissues were sufficiently stained by immersion in the PK staining solution at room temperature for 2 to 3 days.
as §3

[7] = test system: well-differentiated adenocarcinoma lesion tissue of the rectum; test: Test Example 4: PK and Hoechst staining of rectum, two-photon microscopy; conditions: cleared by LUCID method, co-stained with Hoechst
Experimental: as §1, §2
as §3, with “included. […]” for “included.”

[8] = cited from earlier work
[9] = Measurement of photophysical properties of PC in organic solvent and phosphate buffer (absorption spectrum, fluorescence spectrum, fluorescence quantum yield); assay type: physicochemical; conditions: 20 mM phosphate buffer (pH 7.4) at 25° C.
[10] = 5 μm paraffin section, 960 nm laser, 495 nm filter

For `CCN(CC)c1ccc2nc3c4ccccc4c(=O)cc-3oc2c1` [Nile Red], the “shift of the fluorescence wavelength due to solvatochromism” value ([1]; Test Example 3 stained tissue) was “relatively small”, the “imaging performance for fluorescence observation (rank)” value (from here on “imaging performance”) [1] was “followed by PK, POLARIC, and Nile Red in this order” and the “fluorescence intensity of the raw image” value [2] was “lower than those of PK and PC”. The “imaging performance” value [2] was “followed by PK, Nile Red, and POLARIC in this order”.
In the case of `CC(=O)c1ccc2ccc3c(N4CCCCC4)ccc4ccc1c2c43` [PK, 1-Acetyl-6-piperidylpyrene], the “imaging performance” value [1] is reported as “followed by PK, POLARIC, and Nile Red in this order”, the “imaging performance” value [2] is reported as “followed by PK, Nile Red, and POLARIC in this order” and the “fluorescence signal in malignant melanoma cells” value [3] is reported as “not observed”. The “detection of tumor cells (Paget cells)” value ([4]; cleared tissue 500 μm thick, LUCID method, 495 nm) was “successfully detected even when they were scattered one by one”, the “signals in normal cells of the epidermis, dermis, and hair follicle” value ([4]; normal cells within the observed lesion tissues of Test Example 2) was “significantly observed in all of these cells” and the “staining of normal rectal mucosal epithelium” value [5] was “cell membranes were positive for PK staining, cytoplasm was poorly stained”. For the same molecule, the “distinction of tumor cells from normal cells” value [6, 10] was “tumor cells can be distinguished from normal cells”, the “fluorescence signal in the parts where the tumor cells (Paget cells) exist” value [6, 10] was “the fluorescence wavelength shifted and the signal level decreased” and the “distribution of the dye in cells” value ([6]; thin sliced section) was “inserted into cell membranes”. For the same molecule, the “staining of rectal tumor lesion” value [7] was “cytoplasmic staining property by PK staining was high”, the absorption maximum wavelength ([8]; 20 mM phosphate buffer (pH 7.4) at room temperature) was 407 nm and the “fluorescence maximum wavelength λDMSO” value ([8]; DMSO) was 558 nm. For the same molecule, the “fluorescence maximum wavelength λMet” value ([8]; methanol) was 593 nm, the “fluorescence maximum wavelength λHep” value ([8]; n-heptane) was 474 nm and the “fluorescence maximum wavelength ΔTol” value ([8]; toluene) was 503 nm.
For `CCCC(=O)/C=C/c1ccc2ccc3c(N4CCCCC4)ccc4ccc1c2c43` [compound A, (E)-1-(6-(piperidin-1-yl)pyren-1-yl)hexa-1-en-3-one], the “imaging performance” value [1] was “best performance”, the “imaging performance” value [2] was “best performance” and the absorption maximum wavelength [9] was 421 nm. It also gave a fluorescence maximum wavelength [9] of 621 nm.
